# Data published in patent publication US11033547B2, “Carboxamide-pyrimidine derivatives as SHP2 antagonists” (Merck Patent GmbH, priority 2019, dated 2021).
# Target: Full length SHP2 protein (Recombinant Human SHP-2) (Homo sapiens, UniProt Q06124)
# Assay: SHP2 biochemical assay (DiFMUP substrate, activating peptide IRSI_2pY)
# Conditions: DiFMUP substrate, activating peptide IRSI_2pY, 60 min at RT; read-out: SHP-2 Biochemical assay IC50
# Method: The inhibition of SHP2 by compounds of the invention was monitored using the surrogate substrate DiFMUP after protein activation by a peptide bearing two appropriately spaced phosphotyrosine. […] The generation of the DiFMU product by activated SHP2 was monitored through Fluorescence measurement with a PerkinElmer Envision reader.
# The inhibitor dose response curves were analyzed with Genedata Screener.
# Chain of Full length SHP2 protein (Recombinant Human SHP-2) (Q06124 2-593 limits assumed): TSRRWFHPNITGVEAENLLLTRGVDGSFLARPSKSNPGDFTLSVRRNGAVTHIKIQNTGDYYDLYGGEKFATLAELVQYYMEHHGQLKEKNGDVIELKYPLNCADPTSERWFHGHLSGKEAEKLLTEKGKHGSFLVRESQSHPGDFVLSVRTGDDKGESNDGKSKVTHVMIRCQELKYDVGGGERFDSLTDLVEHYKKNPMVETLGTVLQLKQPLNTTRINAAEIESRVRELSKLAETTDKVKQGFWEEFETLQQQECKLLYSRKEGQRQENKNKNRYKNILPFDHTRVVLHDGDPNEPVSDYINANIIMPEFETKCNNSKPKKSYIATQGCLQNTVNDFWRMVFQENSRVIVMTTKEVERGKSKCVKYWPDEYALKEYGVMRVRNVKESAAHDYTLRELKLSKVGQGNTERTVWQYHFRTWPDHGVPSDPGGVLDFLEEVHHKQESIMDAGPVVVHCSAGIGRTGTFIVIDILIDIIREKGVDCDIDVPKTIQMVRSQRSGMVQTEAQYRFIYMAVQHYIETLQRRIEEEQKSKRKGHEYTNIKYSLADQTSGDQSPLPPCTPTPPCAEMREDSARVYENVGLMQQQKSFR
row,IC50 [µM],Compound
1,10,"NC(=O)c1nc(N[C@@H]2CCNC[C@@H]2F)nc(N)c1-c1cccc(Cl)c1Cl (atropisomer, axis not shown; (M)) [Compound 64, (5M)-6-amino-5-(2,3-dichlorophenyl)-2-{[(3S,4R)-3-fluoropiperidin-4-yl]amino}-pyrimidine-4-carboxamide]"
2,1.4,"CC1(N)CCN(c2nc(Cl)c(-c3cccc(Cl)c3Cl)c(C(N)=O)n2)CC1 (atropisomer, axis not shown; (M)) [Compound 78, (4M)-2-(4-amino-4-methylpiperidin-1-yl)-6-chloro-5-(2,3-dichlorophenyl)-pyrimidine-4-carboxamide]"
3,1.2,"Cc1nc(N[C@H]2CCC[C@@H](N)C2)nc(C(N)=O)c1-c1cccc(Cl)c1Cl (atropisomer, axis not shown; (M)) [Compound 87, (4M)-2-{[(1S,3R)-3-aminocyclohexyl]amino}-5-(2,3-dichlorophenyl)-6-methylpyrimidine-4-carboxamide]"
4,3.7,"NC[C@@]12CCC[C@@H]1CN(c1nc(N)c(-c3cccc(Cl)c3Cl)c(C(N)=O)n1)C2 (atropisomer, axis not shown; (M)) [Compound 99, (5M)-2-[(3aR,6aS)-3a-(aminomethyl)octahydrocyclopenta[c]pyrrol-2-yl]-6-amino-5-(2,3-dichlorophenyl)pyrimidine-4-carboxamide]"
5,3.2,"NC(=O)c1nc(N2CCC(N)(C(F)F)CC2)nc(N)c1-c1cccc(Cl)c1Cl (atropisomer, axis not shown; (M)) [Compound 107, (5M)-6-amino-2-[4-amino-4-(difluoromethyl)piperidin-1-yl]-5-(2,3-dichlorophenyl)-pyrimidine-4-carboxamide]"
6,4.4,"C[C@]1(N)CCCN(c2nc(N)c(-c3cccc(Cl)c3Cl)c(C(N)=O)n2)CC1 (atropisomer, axis not shown; (M)) [Compound 110, (5M)-6-amino-2-[(4S)-4-amino-4-methylazepan-1-yl]-5-(2,3-dichlorophenyl)-pyrimidine-4-carboxamide]"
7,0.57,"COc1c(F)ccc(-c2c(C)nc(N3CCC(C)(N)CC3)nc2C(N)=O)c1Cl (atropisomer, axis not shown; (M)) [Compound 115, (4M)-2-(4-amino-4-methylpiperidin-1-yl)-5-(2-chloro-4-fluoro-3-methoxyphenyl)-6-methylpyrimidine-4-carboxamide]"
8,7.9,"Cc1nc(N2CCC(C)(N)CC2)nc(C(N)=O)c1-c1cccc(Cl)c1Cl (atropisomer, axis not shown; (P)) [Compound 31, (4P)-2-(4-amino-4-methylpiperidin-1-yl)-5-(2,3-dichlorophenyl)-6-methylpyrimidine-4-carboxamide]"
9,> 10,"Cc1nc(N2CCOC[C@H]2CN)nc(C(N)=O)c1-c1cccc(Cl)c1Cl (atropisomer, axis not shown; (P)) [Compound 47, (4P)-2-[(3R)-3-(aminomethyl)morpholin-4-yl]-5-(2,3-dichlorophenyl)-6-methylpyrimidine-4-carboxamide]"
10,> 10,"Cc1nc(N2CCOC[C@@H]2CN)nc(C(N)=O)c1-c1cccc(Cl)c1Cl (atropisomer, axis not shown; (P)) [Compound 48, (4P)-2-[(3S)-3-(aminomethyl)morpholin-4-yl]-5-(2,3-dichlorophenyl)-6-methylpyrimidine-4-carboxamide]"
11,13,"Cc1nc(N[C@@H]2CCC[C@H](N)C2)nc(C(N)=O)c1-c1cccc(Cl)c1Cl (atropisomer, axis not shown; (P)) [Compound 89, (4P)-2-{[(1R,3S)-3-aminocyclohexyl]amino}-5-(2,3-dichlorophenyl)-6-methylpyrimidine-4-carboxamide]"
12,> 10,"Cc1nc(N[C@H]2CCC[C@@H](N)C2)nc(C(N)=O)c1-c1cccc(Cl)c1Cl (atropisomer, axis not shown; (P)) [Compound 90, (4P)-2-{[(1S,3R)-3-aminocyclohexyl]amino}-5-(2,3-dichlorophenyl)-6-methylpyrimidine-4-carboxamide]"
13,15,"NC(=O)c1nc(N2CCC(N)(C(F)F)CC2)nc(N)c1-c1cccc(Cl)c1Cl (atropisomer, axis not shown; (P)) [Compound 106, (5P)-6-amino-2-[4-amino-4-(difluoromethyl)piperidin-1-yl]-5-(2,3-dichlorophenyl)-pyrimidine-4-carboxamide]"
14,1.3,"C[C@]1(N)CCCN(c2nc(N)c(-c3cccc(Cl)c3Cl)c(C(N)=O)n2)CC1 (atropisomer, axis not shown; (P)) [Compound 108, (5P)-6-amino-2-[(4S)-4-amino-4-methylazepan-1-yl]-5-(2,3-dichlorophenyl)-pyrimidine-4-carboxamide]"
15,> 10,"COc1c(F)ccc(-c2c(C)nc(N3CCC(C)(N)CC3)nc2C(N)=O)c1Cl (atropisomer, axis not shown; (P)) [Compound 116, (4P)-2-(4-amino-4-methylpiperidin-1-yl)-5-(2-chloro-4-fluoro-3-methoxyphenyl)-6-methylpyrimidine-4-carboxamide]"
16,8.8,"NC(=O)c1nc(N2C[C@H]3CCCCC[C@@H](C2)C3N)nc(N)c1-c1cccc(Cl)c1Cl (single isomer, unassigned) [Compound 14]"
17,17,"NC[C@@]12CCCC[C@@H]1CN(c1nc(N)c(-c3cccc(Cl)c3Cl)c(C(N)=O)n1)C2 (single isomer, unassigned) [Compound 102]"
18,5.6,"NC[C@]12CCCC[C@H]1CN(c1nc(N)c(-c3cccc(Cl)c3Cl)c(C(N)=O)n1)C2 (single isomer, unassigned) [Compound 103]"
19,10,"NC[C@]12CCC[C@H]1CN(c1nc(N)c(-c3cccc(Cl)c3Cl)c(C(N)=O)n1)C2 (single isomer, unassigned) [Compound 105]"
20,0.66,"Cc1nc(N2CCC3(CCC[C@H]3N)CC2)nc(C(N)=O)c1-c1cccc(Cl)c1Cl (single isomer, unassigned) [Compound 113]"
21,0.006,"NC(=O)c1nc(N2CCC3(CC2)Oc2ncccc2C3N)nc(N)c1-c1cccc(Cl)c1Cl (single isomer, unassigned) [Compound 128]"
22,0.33,"NC(=O)c1nc(N2CCC3(CC2)Oc2ncccc2C3N)nc(N)c1-c1cccc(Cl)c1Cl (single isomer, unassigned) [Compound 129]"
23,0.077,"NC(=O)c1nc(N2CCC3(CC2)Oc2ncccc2[C@@H]3N)nc(N)c1-c1cccc(Cl)c1Cl (single isomer, unassigned) [Compound 130]"
24,7,"NC(=O)c1nc(N2CCC3(CC2)Oc2ncccc2[C@@H]3N)nc(N)c1-c1cccc(Cl)c1Cl (single isomer, unassigned) [Compound 131]"
25,1.1,"Cc1nc(N2CCC3(CCC[C@H]3N)C2)nc(C(N)=O)c1-c1cccc(Cl)c1Cl (stereo in doubt) [Compound 35, 2-((R)-6-Amino-2-aza-spiro[4.4]non-2-yl)-5-(2,3-dichloro-phenyl)-6-methyl-pyrimidine-4-carboxylic acid amide]"

row,Compound,IC50 [µM]
1,"Cc1nc(N2CCC3(CC2)CO[C@@H](C)[C@H]3N)nc(C(N)=O)c1-c1cccc(Cl)c1Cl (single isomer, unassigned) [Compound 94]",2.6
2,"NC(=O)c1nc(N2CCC3(CC2)Cc2ccccc2[C@H]3N)nc(N)c1-c1cccc(Cl)c1Cl (single isomer, unassigned) [Compound 118]",0.041
